Test results taken from publication PMC9598926, “Design and Synthesis of (Z)-5-(Substituted benzylidene)-3-cyclohexyl-2-thioxothiazolidin-4-one Analogues as Anti-Tyrosinase and Antioxidant Compounds: In Vitro and In Silico Insights” (Antioxidants, 2022).

Key:
Format in all cases: cell-based, murine
tyrosinase [1] = assay: Western blot of cytosolic tyrosinase in α–MSH/IBMX stimulated B16F10 cells; conditions: 5, 10, 20 µM
Protocol: 2.15. Extraction of Cytosolic and Nuclear Proteins from Cells
Western blotting was used to determine tyrosinase and MITF protein levels. Briefly, B16F10 cells were seeded in 60 mm culture dishes in the presence or absence of α–MSH (1 µM) plus IBMX (200 µM) with or without analog 3 (5, 10, and 20 µM for final concentrations) for 24 h, washed twice with ice-cold PBS and centrifuged for 10 min at 12,000× g. Cell pellets were suspended in 10 mM Tris (pH 8.0) containing 0.1% NP-40, 1 mM DTT, 1.5 mM MgCl2, 1 mM PMSF, and protease inhibitors (GenDEPOT, Barker, TX, USA), incubated on ice for 15 min, and centrifuged for 10 min at 12,000× g at 4 °C. Supernatants were used as cytosolic fractions. […] The protein concentrations were determined using a bicinchoninic acid (BCA)™ assay kit (Pierce, Rockford, IL, USA). […]
Lysed protein samples from cells were boiled for 10 min in sample-loading buffer (0.1% bromophenol blue, 25% glycerol, 60 mM Tris-HCl (pH 6.8), 2% SDS, and 0.5% β-mercaptoethanol) at a volume ratio of 1:4. […] Immunoreactive proteins were detected using the enhanced chemiluminescence (ECL) detection reagent in the SuperSignal® West Pico Chemiluminescent Substrate kit (Advansta, San Jose, CA, USA). Western blot bands were visualized using a Davinch-Chemi imager™ (Davinch-K, Seoul, Korea), and quantification was conducted by densitometric analysis using CS analyzer software ver. […]

tyrosinase [2] = assay: RT-qPCR of tyrosinase mRNA in α–MSH/IBMX stimulated B16F10 cells
Protocol: 2.17. RNA Extraction and Quantitative Real Time-Polymerase Chain Reaction (RT-qPCR)
B16F10 cells were extracted using GeneAll RiboEx Total RNA extraction reagent (GeneAll Biotechnology, Seoul, Korea) and transferred to tubes, added with chloroform (0.1 mL), shaken vigorously for 30 sec, and centrifuged for 15 min at 12,000× g. Aqueous phases were transferred to fresh tubes, and equal volumes of isopropanol were added. Samples were then incubated at 4 °C for 10 min and centrifuged for 15 min at 12,000× g at 4 °C. Supernatants were discarded, and RNA pellets were washed once with 0.8 mL of 70% ethanol and by vortexing briefly and centrifuged for 5 min at 7500× g at 4 °C. Pellets were dried at 56 °C for 10–15 min and dissolved in 30 µL of diethyl pyrocarbonate (DEPC)-treated water. The levels of RNA were determined by a Nanodrop spectrophotometer (NANO-200, Allsheng, Hangzhou, China). Complementary DNA (cDNA) was synthesized from total RNA (2 µg) using SuPrime Script RT Premix (with random hexamer) cDNA Synthesis Kit (GeNet Bio, Daejeon, Korea). […]
To further investigate the anti-melanogenesis mechanism of analog 3, we examined its effect on the expressions of melanogenesis-associated genes and levels of melanogenesis-associated proteins in B16F10 cells. […] Nuclear levels of MITF protein were measured by Western blotting in α–MSH/IBMX-stimulated B16F10 cells. […]

B16F10 cells = assay: Melanin content analysis in α–MSH plus IBMX stimulated B16F10 cells
Protocol: 2.10. Melanin Content Analysis Melanin content assays were performed to determine the effects of analog 3 on cellular melanin formation, as previously described with minor modification. […] Briefly, cultured B16F10 cells were seeded in 6-well culture plates at 1 × 10^4 cells/well and incubated for 12 h under culture conditions to allow them to adhere to well bottoms. […] Cells were then washed twice with PBS and detached from wells by incubation with Trypsin/EDTA. After centrifugation, detached cell pellets were dissolved in 1N–NaOH solution (100 µL), incubated for 1 h at 60 °C, and mixed to solubilize melanin released by cells. The ability of analog 3 to inhibit melanin production was determined by measuring well optical densities (ODs) at 405 nm using a microplate reader (VersaMax®, Molecular Devices, Sunnyvale, CA, USA). Melanin contents were calculated by dividing the ODs of samples by the control OD. Experiments were conducted independently 3 times. […] Thus, B16F10 cells were treated with analog 3 (0, 5, 10, or 20 µM) for 1 h and then stimulated with α–MSH (1 µM) plus IBMX (200 µM) for 72 h. Melanin contents were assessed by measuring optical densities at 405 nm.

## O=C1/C(=C/c2ccc(O)cc2O)SC(=S)N1C1CCCCC1 [Analog 3, (Z)-3-Cyclohexyl-5-(2,4-dihydroxybenzylidene)-2-thioxothiazolidin-4-one]
Tyrosinase [1]
  effect on α–MSH/IBMX-induced increase in tyrosinase expression (protein, cytosol): significantly and concentration-dependently reduced
Tyrosinase [2]; α–MSH/IBMX stimulated
  effect on expression of tyrosinase (mRNA): significantly and concentration-dependently decreased
Tyrosinase [2]; α–MSH/IBMX stimulated (3.3-fold), 5 µM
  tyrosinase gene expression: 2.6 fold
B16F10 cells; 5 µM, compared with kojic acid 20 µM
  effect on α–MSH/IBMX-induced melanin contents at 5 µM: greater effect than kojic acid at 20 µM
B16F10 cells; 20 µM, 72 h
  effect on α–MSH/IBMX-induced melanin contents at 20 µM: to the non-treated control level
B16F10 cells; 5, 10, 20 µM, 72 h
  effect on α–MSH/IBMX-induced melanin content increases: significantly and dose-dependently reduced
